Measured values from patent publication US6924302B2, “Substituted triazole diamine derivatives as kinase inhibitors” (Ortho McNeil Pharmaceutical, Inc., priority 2000, dated 2005).

Columns and labels:
Settings in all cases: Tables 2a-2k
ERK-1 protein = biological target: T1, ERK-1 protein (Homo sapiens, UniProt P27361); assay: Kinase Selectivity Assay ERK-1; format: biochemical
T1 construct: purchased Calbiochem
Procedure: Assays to test compound inhibition of other kinases were preformed using methods that measure the amount of phosphorylation of a biotinylated peptide substrate. Biotinylated peptide substrates were selected from the literature as appropriate for the enzyme being evaluated. The general procedure used to assay for kinase activity is as follows: A kinase reaction mix was prepared in 50 mM Tris-HCl pH=8, 10 mM MgCl2, 0.1 mM Na3VO4, 1 mM DTT, 10 μM ATP, 0.25-1 μM biotinylated peptide substrate, 0.2-0.82 μCuries per well ^33P-γ-ATP [2000-3000 Ci/mmol]. Assay conditions vary slightly for each protein kinase, for example, insulin receptor kinase requires 10 mM MnCl2 for activity and Calmodulin-dependent protein kinase requires calmodulin and 10 mM CaCl2. These assay conditions are known in the art. […] The plate was read on a scintillation counter to determine ^33P-γ-ATP incorporated into the immobilized peptide. […] A maximum and minimum signal for the assay was determined on each plate. The IC50 was calculated from the dose response curve of the percent inhibition of the maximum signal in the assay according to the formula [max signal—background/test compound signal—background (100)=% inhibition] by graphing the percent inhibition against the log concentration of test compound. […]

CDK4/D1 complex = biological target: T2, CDK4/D1 complex (Mus musculus, UniProt P30285); assay: Kinase Selectivity Assay CDK4; format: biochemical
T2 construct: made in house; host or cells: insect cells (baculovirus co-infection)
T2 sequence (P30285 whole entry): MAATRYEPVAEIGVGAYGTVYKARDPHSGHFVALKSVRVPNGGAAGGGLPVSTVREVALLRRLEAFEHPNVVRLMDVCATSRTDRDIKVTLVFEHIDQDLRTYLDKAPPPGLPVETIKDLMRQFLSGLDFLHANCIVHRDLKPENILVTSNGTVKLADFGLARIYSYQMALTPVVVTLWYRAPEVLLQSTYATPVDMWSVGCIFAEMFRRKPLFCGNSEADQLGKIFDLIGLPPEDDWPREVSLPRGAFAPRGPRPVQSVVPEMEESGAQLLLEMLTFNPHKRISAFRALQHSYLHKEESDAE
T2 sequence (P25322 whole entry partner): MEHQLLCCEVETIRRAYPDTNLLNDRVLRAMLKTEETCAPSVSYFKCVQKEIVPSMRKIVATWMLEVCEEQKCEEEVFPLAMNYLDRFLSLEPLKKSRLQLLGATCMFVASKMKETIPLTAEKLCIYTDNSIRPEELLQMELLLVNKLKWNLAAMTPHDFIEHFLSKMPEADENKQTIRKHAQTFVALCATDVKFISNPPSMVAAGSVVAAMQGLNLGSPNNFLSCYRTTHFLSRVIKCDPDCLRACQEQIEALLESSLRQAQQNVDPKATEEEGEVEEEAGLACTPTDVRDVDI
Procedure: Assays to test compound inhibition of other kinases were preformed using methods that measure the amount of phosphorylation of a biotinylated peptide substrate. Biotinylated peptide substrates were selected from the literature as appropriate for the enzyme being evaluated. The general procedure used to assay for kinase activity is as follows: A kinase reaction mix was prepared in 50 mM Tris-HCl pH=8, 10 mM MgCl2, 0.1 mM Na3VO4, 1 mM DTT, 10 μM ATP, 0.25-1 μM biotinylated peptide substrate, 0.2-0.82 μCuries per well ^33P-γ-ATP [2000-3000 Ci/mmol]. Assay conditions vary slightly for each protein kinase, for example, insulin receptor kinase requires 10 mM MnCl2 for activity and Calmodulin-dependent protein kinase requires calmodulin and 10 mM CaCl2. These assay conditions are known in the art. The reaction mixture was dispensed into the wells of a streptavidin coated Flashplate and 1 μl drug stock in 100% DMSO was added to a 100 μl reaction volume resulting in a final concentration of 1% DMSO on the reaction. Enzyme was diluted in 50 mM Tris-HCl pH=8.0, 0.1% BSA and add to each well. The reaction was incubated for one hour at 30° C. in the presence of compound. After one hour the reaction mix was aspirated from the plate and the plate was washed with PBS containing 100 mM EDTA. The plate was read on a scintillation counter to determine ^33P-γ-ATP incorporated into the immobilized peptide. Test compounds were assayed in duplicate at 8 concentrations [100 uM, 10 uM, 1 uM, 100 nM, 10 nM, 1 nM, 100 pM, 10 pM]. A maximum and minimum signal for the assay was determined on each plate. The IC50 was calculated from the dose response curve of the percent inhibition of the maximum signal in the assay according to the formula [max signal—background/test compound signal—background (100)=% inhibition] by graphing the percent inhibition against the log concentration of test compound. Known inhibitor compounds appropriate for the kinase being assayed were also included on each plate. […]

[1] = biological target: PKC (protein kinase-C), gamma or beta isoform; assay: Kinase Selectivity Assay PKC; format: biochemical, human
Procedure: Assays to test compound inhibition of other kinases were preformed using methods that measure the amount of phosphorylation of a biotinylated peptide substrate. Biotinylated peptide substrates were selected from the literature as appropriate for the enzyme being evaluated. […] Assay conditions vary slightly for each protein kinase, for example, insulin receptor kinase requires 10 mM MnCl2 for activity and Calmodulin-dependent protein kinase requires calmodulin and 10 mM CaCl2. These assay conditions are known in the art. The reaction mixture was dispensed into the wells of a streptavidin coated Flashplate and 1 μl drug stock in 100% DMSO was added to a 100 μl reaction volume resulting in a final concentration of 1% DMSO on the reaction. Enzyme was diluted in 50 mM Tris-HCl pH=8.0, 0.1% BSA and add to each well. The reaction was incubated for one hour at 30° C. in the presence of compound. After one hour the reaction mix was aspirated from the plate and the plate was washed with PBS containing 100 mM EDTA. The plate was read on a scintillation counter to determine ^33P-γ-ATP incorporated into the immobilized peptide. Test compounds were assayed in duplicate at 8 concentrations [100 uM, 10 uM, 1 uM, 100 nM, 10 nM, 1 nM, 100 pM, 10 pM]. A maximum and minimum signal for the assay was determined on each plate. The IC50 was calculated from the dose response curve of the percent inhibition of the maximum signal in the assay according to the formula [max signal—background/test compound signal—background (100)=% inhibition] by graphing the percent inhibition against the log concentration of test compound. Known inhibitor compounds appropriate for the kinase being assayed were also included on each plate.
CDK2 in complex with cyclin A is commercially available (Upstate Biotech, Lake Placid, N.Y.). […]

T1 sequence (P27361 whole entry, species assumed): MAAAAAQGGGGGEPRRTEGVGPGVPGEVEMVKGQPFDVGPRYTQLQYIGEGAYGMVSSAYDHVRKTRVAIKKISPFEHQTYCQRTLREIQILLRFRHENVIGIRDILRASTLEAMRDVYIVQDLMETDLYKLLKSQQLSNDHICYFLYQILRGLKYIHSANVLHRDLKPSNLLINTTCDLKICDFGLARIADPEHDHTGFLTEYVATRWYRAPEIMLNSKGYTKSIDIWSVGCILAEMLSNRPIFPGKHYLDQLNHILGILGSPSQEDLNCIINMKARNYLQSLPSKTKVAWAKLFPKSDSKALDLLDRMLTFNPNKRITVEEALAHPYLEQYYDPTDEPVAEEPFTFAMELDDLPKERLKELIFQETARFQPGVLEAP

Nc1nc(Nc2ccc(S(N)(=O)=O)cc2)nn1C(=O)c1cccs1 [Cpd 14, 4-[[5-amino-1-(2-thienylcarbonyl)-1H-1,2,4-triazol-3-yl]amino]-benzenesulfonamide]
IC50 (ERK-1 protein): > 100000 nM

Cc1ccc(F)c(C(=O)n2nc(Nc3ccc(S(N)(=O)=O)cc3)nc2N)c1Cl [Cpd 69, 4-[[5-amino-1-(2-chloro-6-fluoro-3-methylbenzoyl)-1H-1,2,4-triazol-3-yl]amino]-benzenesulfonamide]
IC50 (CDK4/D1 complex): 187 nM

Nc1nc(Nc2ccc(S(N)(=O)=O)cc2)nn1C(=O)c1c(F)cccc1Cl [Cpd 70, 4-[[5-amino-1-(2-chloro-6-fluorobenzoyl)-1H-1,2,4-triazol-3-yl]amino]-benzenesulfonamide]
IC50 (CDK4/D1 complex): 167 nM

CN1CCN(c2ccc(Nc3nc(N)n(C(=O)c4c(F)cccc4F)n3)cc2)CC1 [Cpd 71, 1-(2,6-difluorobenzoyl)-N^3-[4-(4-methyl-1-piperazinyl)phenyl]-1H-1,2,4-triazole-3,5-diamine]
IC50 (CDK4/D1 complex): 129 nM

Cc1ccsc1C(=O)n1nc(Nc2ccc(N3CCNC3=O)cc2)nc1N [Cpd 113, 1-[4-[[5-amino-1-[(3-methyl-2-thienyl)carbonyl]-1H-1,2,4-triazol-3-yl]amino]phenyl]-2-imidazolidinone]
IC50 [1]: > 100000 nM
